{"source": "patent EP0341603A2", "about": "“Atrial peptide derivatives” (ABBOTT LABORATORIES, priority 1988, dated 1989)", "origin": "cited, not measured here", "conditions": "relative to furosemide", "note": "Bridge positions count the residues as written; N and C are the ends. Ends that are not written are not given here.", "data": [{"substance": "alpha-hANP: alpha-human atrial natriuretic polypeptide isolated from human atrium, a polypeptide consisting of 28 amino acids (SLRRSSCFGGRMDRIGAQSGLGCNSFRY; disulfide 7-23 (inferred); ends not checked; UniProt P01160 124-151, looked up)", "values": [{"measurement": "diuretic action, times as strong as that of furosemide", "result": "about 1000 times"}]}]}
